# Key:
# [1] = molecular target: T1, Human glucocorticoid receptors (Homo sapiens, UniProt P04150); assay: Radioligand filter binding assay, displacement of 3[H]-dexamethasone from hGR; settings: read-out: GR Binding (% Inhibition at 1.7 μM)
# T1 construct: made in house; host or cells: Sf9 insect cells, recombinant baculovirus (BAC-TO-BAC)
# T1 sequence (P04150 1-777): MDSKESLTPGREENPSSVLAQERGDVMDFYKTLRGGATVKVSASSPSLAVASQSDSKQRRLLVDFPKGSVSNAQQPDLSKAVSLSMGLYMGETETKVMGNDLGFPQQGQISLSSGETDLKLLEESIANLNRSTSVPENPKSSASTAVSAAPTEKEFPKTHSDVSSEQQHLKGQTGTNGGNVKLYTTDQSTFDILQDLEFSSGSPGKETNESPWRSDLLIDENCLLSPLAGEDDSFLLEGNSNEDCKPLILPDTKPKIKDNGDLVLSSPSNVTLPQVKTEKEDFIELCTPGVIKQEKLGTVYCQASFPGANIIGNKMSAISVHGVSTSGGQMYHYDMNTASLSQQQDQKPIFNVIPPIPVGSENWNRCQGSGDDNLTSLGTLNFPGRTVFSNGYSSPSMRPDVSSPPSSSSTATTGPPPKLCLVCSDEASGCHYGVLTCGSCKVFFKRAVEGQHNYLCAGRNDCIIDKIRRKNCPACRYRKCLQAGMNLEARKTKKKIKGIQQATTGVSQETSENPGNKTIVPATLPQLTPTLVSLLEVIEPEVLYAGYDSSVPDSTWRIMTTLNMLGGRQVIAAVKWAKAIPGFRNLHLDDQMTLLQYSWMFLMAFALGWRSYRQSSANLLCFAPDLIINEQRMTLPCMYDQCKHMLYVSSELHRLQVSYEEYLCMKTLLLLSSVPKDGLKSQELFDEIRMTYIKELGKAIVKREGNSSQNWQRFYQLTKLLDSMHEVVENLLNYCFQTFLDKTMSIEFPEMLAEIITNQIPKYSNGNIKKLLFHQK
# How it was run: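 Recombinant hGR extract from baculovirus-infected Sf9 cells (final ~1 nM receptor) incubated with ³H-dexamethasone and test compound dilutions in duplicate, EDTA/phosphate pH 8 buffer with MTG, overnight (15-20 h) at +4° C. Bound label collected on PEI-treated GF/B filters and scintillation-counted; IC50 from four-parameter fit of corrected cpm.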
# [2] = molecular target: T2, progesterone receptor (PR) (Homo sapiens, UniProt P06401); assay: Radioligand binding assay for progesterone receptor (similar protocol);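 note: radioligand binding measured with cytosol preparations containing the human progesterone receptor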
# T2 sequence (P06401 1-933): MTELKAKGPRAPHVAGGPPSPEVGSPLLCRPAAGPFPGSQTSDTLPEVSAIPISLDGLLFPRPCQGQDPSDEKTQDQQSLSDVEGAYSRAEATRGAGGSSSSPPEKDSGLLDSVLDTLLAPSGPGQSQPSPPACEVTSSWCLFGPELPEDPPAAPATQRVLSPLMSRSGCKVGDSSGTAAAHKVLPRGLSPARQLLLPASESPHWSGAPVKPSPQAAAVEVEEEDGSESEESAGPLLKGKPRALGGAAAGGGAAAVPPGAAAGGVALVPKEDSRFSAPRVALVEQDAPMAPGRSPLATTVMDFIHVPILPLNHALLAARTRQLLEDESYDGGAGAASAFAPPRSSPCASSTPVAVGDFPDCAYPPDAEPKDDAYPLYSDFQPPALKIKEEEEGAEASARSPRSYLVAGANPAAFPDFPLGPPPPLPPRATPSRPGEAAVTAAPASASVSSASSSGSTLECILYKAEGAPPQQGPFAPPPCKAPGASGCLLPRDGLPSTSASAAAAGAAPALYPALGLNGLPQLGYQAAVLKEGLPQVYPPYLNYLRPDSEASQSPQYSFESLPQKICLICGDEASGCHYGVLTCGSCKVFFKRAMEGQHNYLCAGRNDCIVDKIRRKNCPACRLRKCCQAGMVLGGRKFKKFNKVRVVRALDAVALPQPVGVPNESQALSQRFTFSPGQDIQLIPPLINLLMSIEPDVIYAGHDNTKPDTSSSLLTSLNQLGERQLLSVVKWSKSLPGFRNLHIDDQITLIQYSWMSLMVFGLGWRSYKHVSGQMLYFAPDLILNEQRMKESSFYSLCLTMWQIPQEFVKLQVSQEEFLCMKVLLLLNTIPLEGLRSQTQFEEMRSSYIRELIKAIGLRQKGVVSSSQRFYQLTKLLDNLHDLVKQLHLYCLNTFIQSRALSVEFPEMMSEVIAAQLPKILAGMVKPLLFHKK
# Excerpt: Methods for Radiolipand Binding Studies with Human Glucocorticoid and Progesterone Receptor Cytosol
SMILES,inhibition at 1.7 µM [1],IC50 [2]
"CC#CCCOc1ccc(CN(Cc2ccc(F)cc2F)c2cccc(NS(C)(=O)=O)c2C)cc1 [Example 143, N-(3-{(2,4-difluorobenzyl)[4-(pent-3-ynyloxy)benzyl]amino}-2-methylphenyl)methanesulfonamide]",89.3%,> 10000 nM
"Cc1c(NS(C)(=O)=O)cccc1N(Cc1ccccc1)Cc1ccc(Oc2ccc(CCC(=O)NCCCCCCO)cc2)cc1 [Example 153, 3-(4-{4-[(benzyl{2-methyl-3-[(methlsulfonyl)amino]phenyl}amino)methyl]phenoxy}phenyl)-N-(6-hydroxyhexyl)propanamide]",91.7%,255 nM
"Cc1c(NS(C)(=O)=O)cccc1N(Cc1ccc(OCc2ccoc2)cc1)Cc1ccc(F)cc1F [Example 154, N-(3-{(2,4-difluorobenzyl)[4-(3-furylmethoxy)benzyl]amino}-2-methylphenyl)methanesulfonamide]",92.3%,921 nM
"C=CCOc1ccc(CN(Cc2ccc(F)cc2F)c2cccc(NS(C)(=O)=O)c2C)cc1 [Example 20, N-{3-[[4-(allyloxy)benzyl](2,4-difluorobenzyl)amino]-2-methylphenyl}methanesulfonamide]",84.2%,430 nM
"CCCOc1ccc(CN(Cc2ccc(F)cc2F)c2cccc(NS(C)(=O)=O)c2C)cc1 [Example 43, N-{3-[(2,4-difluorobenzyl)(4-propoxybenzyl)amino]-2-methylphenyl}methanesulfonamide]",91.1%,660 nM
"CCOC(=O)/C=C/c1c(NS(C)(=O)=O)cccc1N(Cc1ccccc1)Cc1ccccc1 [Example 40, N-[3-(dibenzylamino)-2-((E)-3-ethoxy-3-oxo-1-propenyl)phenyl]methanesulfonamide]",87%,> 10000 nM
"Cc1c(NS(C)(=O)=O)cccc1N(Cc1ccc(Oc2ccc(Br)c(OCC(=O)O)c2)cc1)Cc1ccc(F)cc1F [Example 323, (2-bromo-5-(4-(((2,4-difluorobenzyl)(2-methyl-3-((methylsulfonyl)amino)phenyl)amino)methyl)phenoxy)phenoxy)acetic acid]",98.2%,66.6 nM
"Cc1c(NS(C)(=O)=O)cccc1N(Cc1ccccc1)Cc1ccc(Oc2cccc(OCC(=O)NCCCN3CCCC3=O)c2)cc1 [Example 114, 2-(3-{4-[(benzyl{2-methyl-3-[(methylsulfonyl)amino]phenyl}amino)methyl]phenoxy}phenoxy)-N-[3-(2-oxopyrrolidin-1-yl)propyl]acetamide]",96.7%,1370 nM
"Cc1c(NS(C)(=O)=O)cccc1N(Cc1ccccc1)Cc1ccc(Oc2ccc(CCC(=O)NCCCCCO)cc2)cc1 [Example 149, 3-(4-{4-[(benzyl{2-methyl-3-[(methylsulfonyl)amino]phenyl}amino)methyl]phenoxy}phenyl)-N-(5-hydroxypentyl)propanamide]",94.7%,4290 nM
"Cc1c(NS(C)(=O)=O)cccc1N(Cc1ccccc1)Cc1ccc(Oc2cccc(OCCNS(C)(=O)=O)c2)cc1 [Example 81, N-[2-(3-{4-[(benzyl{2-methyl-3-[(methylsulfonyl)amino]phenyl}amino)methyl]phenoxy}phenoxy)ethyl]methanesulfonamide]",96.2%,622 nM
"Cc1c(NS(C)(=O)=O)cccc1N(Cc1ccccc1)Cc1ccc(Oc2cccc(OCCCN(C)C)c2)cc1 [Example 72, N-{3-[benzyl(4-{3-[3-(dimethylamino)propoxy]phenoxy}benzyl)amino]-2-methylphenyl}methanesulfonamide]",92%,462 nM
"Cc1c(NS(C)(=O)=O)cccc1N(Cc1ccccc1)Cc1ccc(Oc2cccc(OCCNC(=O)CCCC(=O)O)c2)cc1 [Example 79, 5-{[2-(3-{4-[(benzyl{2-methyl-3-[(methylsulfonyl)amino]phenyl}amino)methyl]phenoxy}phenoxy)ethyl]amino}-5-oxopentanoic acid]",97.2%,1100 nM
